According to ChEMBL document CHEMBL5550161, “Discovery of novel small molecules targeting the USP21/JAK2/STAT3 axis for the treatment of triple-negative breast cancer” (Eur J Med Chem, 2024):
Active and inactive are the calls of the source. The calls are words filed in the database; no cut-off is given here.

How the values were obtained:
MDA-MB-231 [1] = experiment: Induction of apoptosis in human MDA-MB-231 cells assessed as decrease in STAT3 phosphorylation at Y705 by Western blot analysis; assay type: functional, cell-based; settings: dose 0.1-0.4 µM
[2] = Toxicity in Balb/c nude mouse assessed as animal mortality at 60 mg/kg, ip bid for 14 days consecutively; assay type: organism-based; settings: in vivo, 336 h, time 14 day
[3] = AUC (0 to infinity) in Sprague-Dawley rat at 4 mg/kg, ip; assay type: ADME, organism-based; settings: in vivo
MDA-MB-231 [4] = experiment: Induction of apoptosis in human MDA-MB-231 cells assessed as late apoptotic cells at 0.8 uM incubated for 24 hrs by Annexin V-FITC/PI staining based flow cytometry (reference value: 1.23 %); assay type: functional
MDA-MB-231 [5] = experiment: Induction of apoptosis in human MDA-MB-231 cells assessed as early apoptotic cells at 0.4 uM incubated for 24 hrs by Annexin V-FITC/PI staining based flow cytometry (reference value: 1.16 %); assay type: functional
HCC1806 [6] = experiment: Antitumor activity against human HCC1806 cells xenografted in Balb/c mouse assessed as increase in E-cadherin level at 40 to 60 mg/kg, ip bid measured after 14 days by IHC analysis; assay type: functional, organism-based; settings: dose 40-60 mg/kg, time 14.0 day
[7] = Toxicity in Balb/c nude mouse assessed as behavioural changes at 60 mg/kg, ip bid for 14 days consecutively; assay type: organism-based; settings: in vivo, 336 h, time 14 day
HCC1806 [8] = experiment: Antitumor activity against human HCC1806 cells xenografted in Balb/c mouse assessed as decrease in Ki67 level at 40 to 60 mg/kg, ip bid measured after 14 days by IHC analysis; assay type: functional, organism-based; settings: dose 40-60 mg/kg, time 14.0 day
[9] = Toxicity in Balb/c nude mouse assessed as histopathological change in lung at 60 mg/kg, ip bid for 14 days consecutively; assay type: organism-based; settings: in vivo, 336 h, time 14 day
HCC1806 [10] = experiment: Downregulation of CUL5 level in human HCC1806 cells at 0.1 to 0.4 uM incubated for 24 hrs by Western blot analysis; assay type: functional, cell-based; settings: dose 0.1-0.4 µM
HCC1806 [11] = experiment: Synergistic inhibition of cell proliferation in human HCC1806 cells assessed as combination index at 0.35 uM in presence of PTX; assay type: functional
HCC1806 [12] = experiment: Induction of apoptosis in human HCC1806 cells assessed as viable cells at 1.6 uM incubated for 24 hrs by Annexin V-FITC/PI staining based flow cytometry (reference value: 98.95 %); assay type: functional; settings: read-out: Activity
[13] = Toxicity in Balb/c nude mouse assessed as histopathological change in heart at 60 mg/kg, ip bid for 14 days consecutively; assay type: organism-based; settings: in vivo, 336 h, time 14 day
MDA-MB-231 [14] = experiment: Induction of apoptosis in human MDA-MB-231 cells assessed as viable cells at 1.6 uM incubated for 24 hrs by Annexin V-FITC/PI staining based flow cytometry (reference value: 97.54 %); assay type: functional; settings: read-out: Activity
MDA-MB-231 [15] = experiment: Anti-proliferative activity against human MDA-MB-231 cells assessed as cell growth inhibition incubated for 72 hrs by MTT assay; assay type: functional, cell-based; settings: MDA-MB-231, 72 h
MDA-MB-231 [16] = experiment: Induction of apoptosis in human MDA-MB-231 cells assessed as viable cells at 0.2 uM incubated for 24 hrs by Annexin V-FITC/PI staining based flow cytometry (reference value: 97.54 %); assay type: functional; settings: read-out: Activity
HCC1806 [17] = experiment: Induction of apoptosis in human HCC1806 cells assessed as decrease in STAT3 level by Western blot analysis; assay type: functional, cell-based; settings: dose 0.1-0.4 µM
HCC1806 [18] = experiment: Induction of apoptosis in human HCC1806 cells assessed as necrotic cells at 0.1 uM incubated for 24 hrs by Annexin V-FITC/PI staining based flow cytometry (reference value: 0.15 %); assay type: functional
MDA-MB-231 [19] = experiment: Induction of apoptosis in human MDA-MB-231 cells assessed as necrotic cells at 0.1 uM incubated for 24 hrs by Annexin V-FITC/PI staining based flow cytometry (reference value: 0.07 %); assay type: functional
[20] = Toxicity in Balb/c nude mouse assessed as histopathological change in kidney at 60 mg/kg, ip bid for 14 days consecutively; assay type: organism-based; settings: in vivo, 336 h, time 14 day
HCC1806 [21] = experiment: Antitumor activity against human HCC1806 cells xenografted in Balb/c mouse assessed as reduction in tumor weight at 40 to 60 mg/kg, ip bid measured after 14 days; assay type: functional, organism-based; settings: dose 40-60 mg/kg, time 14.0 day
HCC1806 [22] = experiment: Induction of apoptosis in human HCC1806 cells assessed as decrease in Bcl-2 level by Western blot analysis; assay type: functional, cell-based; settings: dose 0.1-0.4 µM
HCC1806 [23] = experiment: Anti-proliferative activity against human HCC1806 cells assessed as cell survival; assay type: functional; settings: dose < 0.4 µM; time 24 hrs
HCC1806 [24] = experiment: Induction of apoptosis in human HCC1806 cells assessed as necrotic cells at 0.8 uM incubated for 24 hrs by Annexin V-FITC/PI staining based flow cytometry (reference value: 0.15 %); assay type: functional
HCC1806 [25] = experiment: Anti-proliferative activity against human HCC1806 cells assessed as cell growth inhibition incubated for 72 hrs by MTT assay; assay type: functional, cell-based; settings: HCC1806, 72 h
HCC1806 [26] = experiment: Antitumor activity against human HCC1806 cells xenografted in Balb/c mouse assessed as reduction in tumor volume at 40 to 60 mg/kg, ip bid measured after 14 days; assay type: functional, organism-based; settings: dose 40-60 mg/kg, time 14.0 day
MDA-MB-231 [27] = experiment: Induction of apoptosis in human MDA-MB-231 cells assessed as necrotic cells at 0.8 uM incubated for 24 hrs by Annexin V-FITC/PI staining based flow cytometry (reference value: 0.07 %); assay type: functional
HCC1806 [28] = experiment: Induction of apoptosis in human HCC1806 cells assessed as early apoptotic cells at 1.6 uM incubated for 24 hrs by Annexin V-FITC/PI staining based flow cytometry (reference value: 0.67 %); assay type: functional
MDA-MB-231 [29] = experiment: Anti-proliferative activity against human MDA-MB-231 cells assessed as cell survival; assay type: functional; settings: dose < 0.4 µM; time 24 hrs
MDA-MB-231 [30] = experiment: Inhibition of cell migration in human MDA-MB-231 cells; assay type: functional, cell-based; settings: dose 0.05-2 µM
MDA-MB-231 [31] = experiment: Induction of apoptosis in human MDA-MB-231 cells assessed as decrease in JAK1 level by Western blot analysis; assay type: functional, cell-based; settings: dose 0.1-0.4 µM
Hs-578T = experiment: Anti-proliferative activity against human Hs-578T cells assessed as cell growth inhibition incubated for 72 hrs by MTT assay; assay type: functional, cell-based
HCC1806 [32] = experiment: Induction of apoptosis in human HCC1806 cells assessed as early apoptotic cells at 0.1 uM incubated for 24 hrs by Annexin V-FITC/PI staining based flow cytometry (reference value: 0.67 %); assay type: functional
HCC1806 [33] = experiment: Induction of apoptosis in human HCC1806 cells assessed as viable cells at 0.8 uM incubated for 24 hrs by Annexin V-FITC/PI staining based flow cytometry (reference value: 98.95 %); assay type: functional; settings: read-out: Activity
MDA-MB-231 [34] = experiment: Induction of cell cycle arrest at G2/M phase in human MDA-MB-231 cells at 0.1 to 0.4 uM incubated for 24 hrs; assay type: functional, cell-based; settings: dose 0.1-0.4 µM
HCC1806 [35] = experiment: Anti-proliferative activity against human HCC1806 cells assessed as reduction in EdU-positive cells at 0.2 uM; assay type: functional, cell-based
MDA-MB-231 [36] = experiment: Induction of apoptosis in human MDA-MB-231 cells assessed as decrease in Bcl-2 level by Western blot analysis; assay type: functional, cell-based; settings: dose 0.1-0.4 µM
HCC1806 [37] = experiment: Induction of apoptosis in human HCC1806 cells assessed as viable cells at 0.1 uM incubated for 24 hrs by Annexin V-FITC/PI staining based flow cytometry (reference value: 98.95 %); assay type: functional; settings: read-out: Activity

Question: For COc1cc(Nc2cc(F)ccc2C(=O)NCCc2c[nH]c3c(F)ccc(F)c23)cc(OC)c1OC, which Activity (MDA-MB-231 [1]) is on record?
Answer: Its Activity is “Active”.

Question: What about the Activity [2] of the same compound?
Answer: The Activity was “Non-Toxic”.

Question: What about the AUC(0-inf) [3] of the same compound?
Answer: Its AUC(0-inf) is 1970 ng·h/mL.

Question: And the Activity (MDA-MB-231 [4])?
Answer: The Activity was 2.15%.

Question: What about the Activity (MDA-MB-231 [5]) of the same compound?
Answer: The Activity was 2.31%.

Question: And the Activity (HCC1806 [6])?
Answer: The Activity was “Active”.

Question: What about the Activity [7] of the same compound?
Answer: Its Activity is “Non-Toxic”.

Question: And the Activity (HCC1806 [8])?
Answer: The Activity was “Active”.

Question: What about the Activity [9] of the same compound?
Answer: Its Activity is “Non-Toxic”.

Question: What about the Activity (HCC1806 [10]) of the same compound?
Answer: The Activity was “Active”.

Question: What about the CI (HCC1806 [11]) of the same compound?
Answer: The CI was less than 1.

Question: What about the viability at 1.6 µM (HCC1806 [12]) of the same compound?
Answer: Its viability at 1.6 µM is 92.9%.

Question: And the Activity [13]?
Answer: The Activity was “Non-Toxic”.

Question: What about the viability at 1.6 µM (MDA-MB-231 [14]) of the same compound?
Answer: The viability at 1.6 µM was 87.4%.

Question: What about the IC50 (MDA-MB-231 [15]) of the same compound?
Answer: The IC50 was 0.19 µM.

Question: And the viability at 0.2 µM (MDA-MB-231 [16])?
Answer: Its viability at 0.2 µM is 96.1%.

Question: What about the Activity (HCC1806 [17]) of the same compound?
Answer: Its Activity is “Active”.

Question: And the Activity (HCC1806 [18])?
Answer: Its Activity is 0.11%.

Question: And the Activity (MDA-MB-231 [19])?
Answer: The Activity was 0.19%.

Question: And the Activity [20]?
Answer: The Activity was “Non-Toxic”.

Question: And the Activity (HCC1806 [21])?
Answer: Its Activity is “Active”.

Question: And the Activity (HCC1806 [22])?
Answer: The Activity was “Active”.

Question: What about the Survival (HCC1806 [23]) of the same compound?
Answer: The Survival was greater than 80%.

Question: And the Activity (HCC1806 [24])?
Answer: Its Activity is 0.29%.

Question: What about the IC50 (HCC1806 [25]) of the same compound?
Answer: The IC50 was 0.25 µM.

Question: And the Activity (HCC1806 [26])?
Answer: Its Activity is “Active”.

Question: What about the Activity (MDA-MB-231 [27]) of the same compound?
Answer: Its Activity is 0.11%.

Question: And the Activity (HCC1806 [28])?
Answer: The Activity was 4.81%.

Question: And the Survival (MDA-MB-231 [29])?
Answer: The Survival was greater than 80%.

Question: What about the inhibition (MDA-MB-231 [30]) of the same compound?
Answer: Its inhibition is “Active”.

Question: What about the Activity (MDA-MB-231 [31]) of the same compound?
Answer: The Activity was “Active”.

Question: What about the IC50 (Hs-578T) of the same compound?
Answer: Its IC50 is 0.59 µM.

Question: What about the Activity (HCC1806 [32]) of the same compound?
Answer: Its Activity is 0.65%.

Question: What about the viability at 0.8 µM (HCC1806 [33]) of the same compound?
Answer: The viability at 0.8 µM was 94%.

Question: What about the Activity (MDA-MB-231 [34]) of the same compound?
Answer: The Activity was “Active”.

Question: And the Activity (HCC1806 [35])?
Answer: The Activity was “Active”.

Question: And the Activity (MDA-MB-231 [36])?
Answer: Its Activity is “Active”.

Question: What about the viability at 0.1 µM (HCC1806 [37]) of the same compound?
Answer: The viability at 0.1 µM was 99%.
